According to the supplement of paper PMC10307832:

Assays:
Experiment in all cases: relative viability (nuclei count vs DMSO), 5 days (fraction); higher = more cells survive
FH535 + Bortezomib = compound: CC1=C(C=CC(=C1)[N+](=O)[O-])NS(=O)(=O)C2=C(C=CC(=C2)Cl)Cl [FH535] + CC(C)C[C@H](NC(=O)[C@H](Cc1ccccc1)NC(=O)c1cnccn1)B(O)O [Bortezomib] (partner 0.002 µM)
Outline: (§1)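 Dosing by pin tool came one day after lung cancer cell lines were seeded in 1536-well plates, using either one drug or a fixed anchor-drug dose plus five library-drug doses (not always all listed) in √10 steps. After 5 days, nuclei were counted on 4× images. Relative viability is treated-well nuclei count divided by vehicle-well nuclei count, and values are medians of duplicate plates.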

FH535 + Luminespib = compound: CC1=C(C=CC(=C1)[N+](=O)[O-])NS(=O)(=O)C2=C(C=CC(=C2)Cl)Cl [FH535] + CCNC(=O)c1noc(-c2cc(C(C)C)c(O)cc2O)c1-c1ccc(CN2CCOCC2)cc1 [Luminespib] (partner 0.01 µM)
Outline: as §1

FH535 + Foretinib = compound: CC1=C(C=CC(=C1)[N+](=O)[O-])NS(=O)(=O)C2=C(C=CC(=C2)Cl)Cl [FH535] + COc1cc2c(Oc3ccc(NC(=O)C4(C(=O)Nc5ccc(F)cc5)CC4)cc3F)ccnc2cc1OCCCN1CCOCC1 [Foretinib] (partner 0.25 µM)
Outline: as §1

FH535 + Tozasertib = compound: CC1=C(C=CC(=C1)[N+](=O)[O-])NS(=O)(=O)C2=C(C=CC(=C2)Cl)Cl [FH535] + Cc1cc(Nc2cc(N3CCN(C)CC3)nc(Sc3ccc(NC(=O)C4CC4)cc3)n2)n[nH]1 [Tozasertib] (partner 0.1 µM)
Outline: as §1

FH535 + Vorinostat = compound: CC1=C(C=CC(=C1)[N+](=O)[O-])NS(=O)(=O)C2=C(C=CC(=C2)Cl)Cl [FH535] + O=C(CCCCCCC(=O)Nc1ccccc1)NO [Vorinostat] (partner 1 µM)
Outline: as §1

Cell Line | relative viability (FH535 + Bortezomib; first compound 0.04 µM) | relative viability (FH535 + Bortezomib; first compound 0.1265 µM) | relative viability (FH535 + Bortezomib; first compound 0.4 µM) | relative viability (FH535 + Bortezomib; first compound 1.265 µM) | relative viability (FH535 + Luminespib; first compound 0.04 µM) | relative viability (FH535 + Luminespib; first compound 0.1265 µM) | relative viability (FH535 + Luminespib; first compound 0.4 µM) | relative viability (FH535 + Luminespib; first compound 1.265 µM) | relative viability (FH535 + Foretinib; first compound 0.04 µM) | relative viability (FH535 + Foretinib; first compound 0.1265 µM) | relative viability (FH535 + Foretinib; first compound 0.4 µM) | relative viability (FH535 + Foretinib; first compound 1.265 µM) | relative viability (FH535 + Tozasertib; first compound 0.04 µM) | relative viability (FH535 + Tozasertib; first compound 0.1265 µM) | relative viability (FH535 + Tozasertib; first compound 0.4 µM) | relative viability (FH535 + Tozasertib; first compound 1.265 µM) | relative viability (FH535 + Vorinostat; first compound 0.04 µM) | relative viability (FH535 + Vorinostat; first compound 0.1265 µM) | relative viability (FH535 + Vorinostat; first compound 0.4 µM) | relative viability (FH535 + Vorinostat; first compound 1.265 µM)
EKVX | 1.04 | 0.762 | 1 | 0.704 | 0.876 | 0.935 | 0.859 | 0.764 | 0.792 | 0.629 | 0.744 | 0.587 | 0.405 | 0.402 | 0.452 | 0.333 | 0.403 | 0.819 | 0.693 | 0.222
EMC-BAC-2 | 0.961 | 1.13 | 1.06 | 1.03 | 1.21 | 1.23 | 1.12 | 1.04 | 0.978 | 0.97 | 0.997 | 0.809 | 0.289 | 0.312 | 0.306 | 0.254 | 0.297 | 0.449 | 0.419 | 0.308
EPLC-272H | 0.788 | 0.967 | 0.925 | 0.848 | 0.277 | 0.357 | 0.505 | 0.197 | 0.586 | 0.852 | 0.72 | 0.562 | 0.148 | 0.249 | 0.194 | 0.214 | 0.442 | 0.42 | 0.437 | 0.406
H3255 | 0.614 | 0.827 | 0.708 | 0.409 | 0.849 | 0.892 | 0.911 | 0.44 | 0.817 | 0.803 | 0.794 | 0.496 | 0.62 | 0.716 | 0.659 | 0.452 | 0.804 | 0.753 | 0.729 | 0.654
HARA | 1.03 | 0.987 | 1.11 | 0.73 | 0.52 | 0.869 | 0.726 | 0.446 | 0.814 | 0.969 | 0.88 | 0.477 | 0.0901 | 0.133 | 0.128 | 0.0965 | 0.376 | 0.489 | 0.511 | 0.341
HCC-15 | 0.975 | 0.874 | 0.896 | 0.713 | 0.287 | 0.302 | 0.255 | 0.302 | 0.988 | 1.06 | 0.965 | 0.639 | 0.457 | 0.414 | 0.409 | 0.482 | 0.733 | 0.85 | 0.838 | 0.696
HCC-44 | 0.952 | 0.811 | 0.856 | 0.652 | 1.09 | 1.16 | 1.02 | 0.575 | – | – | – | – | 0.916 | 1 | 0.933 | 0.756 | 1.11 | 1.1 | 1.03 | 0.818
HCC-78 | 0.475 | 0.471 | 0.593 | 0.434 | – | – | – | – | 0.565 | 0.561 | 0.608 | 0.51 | 0.462 | 0.397 | 0.409 | 0.414 | 0.408 | 0.429 | 0.479 | 0.414
